Converted amounts (≈) assume the structure as drawn. Read-outs that look alike come from different tables or passages of the source. Starred links: 1 amine or outer side, 2 acyl side, 3 side chain; linkers in the order of their positions; H or OH if unused. Positions of bridges follow the written chain, without caps; N, C: chain ends. Non-standard residues stand in square brackets, D forms with d. Residues, ends and D or L forms follow the SMILES beside them. X2 = CCCCCCC[C@H](CC(=O)[*:1])O[*:2]; Val(3-OH) = CC(C)(O)[C@H](N)C(=O)O; X1 = C/C=C(/N[*:1])C(=O)[*:2]; Dab = NCC[C@H](N)C(=O)O; Dap = NC[C@H](N)C(=O)O
Columns and labels:
Test in all cases: MIC, extended panel, broth micro-dilution in MHII (EUCAST/CLSI)
Assay type in all cases: cell-based
[1] = tested on: A. baumannii; conditions: Acinetobacter baumannii
Procedure: (§1) Plates were, subsequently, incubated at 37 °C in the dark, and viable colonies counted after 16 to 24 h.
(§2) To estimate MIC values (concentration range between 0.05 and 50 µg/mL), solutions of the tested compounds (100, 10 and 1 and if needed 0.1 µg/mL in MeOH) were dispensed into wells of microtiter plate(s) and the solvent was evaporated in a fume-hood. Subsequently, suspensions of pathogen cells in the appropriate medium were dispensed to the wells of microtiter plates and the growth of pathogens were observed after 16 to 20 h of incubation at 37 °C in the dark. Positive controls were the respective pathogen cells suspended in untreated sterile media without addition of compounds(s) and negative controls were the media only. MIC values were defined as the lowest concentration of each compound with no visible growth of pathogen. All MIC tests were performed in triplicate and […]
(§3) MIC determination for compound 2 against an extended panel of bacterial strains.
(§4) Compound 2 was evaluated against a panel of Gram-negative bacteria (Hughes strain collection), including: A. baumannii ATCC 19606, wild-type; BM4454, multidrug-resistant clinical isolate; BM4652, efflux-defective derivative of BM4454; CH9622, colistin-resistant clinical isolate; E. coli ATCC 25922, wild-type; CH3130, efflux-defective ΔtolC mutant isogenic to ATCC 25922; D22, a drug-hypersensitive lpxC mutant of E. coli; CH3491, multidrug-resistant clinical isolate; CH9623 and CH9624, colistin-resistant clinical isolates carrying mcr-1; K. pneumoniae ATCC 13833, wild-type; […]
(§5) clinical isolate; CH9625 and CH9626, colistin-resistant clinical isolates; P. aeruginosa PAO1, wild-type; PAO750, efflux-defective mutant isogenic to PAO1. The in vitro antimicrobial activity of each compound was determined by measuring the MIC value using the broth micro-dilution technique in cation-adjusted Mueller-Hinton II broth (Becton-Dickinson, 212322) according to EUCAST and CLSI guidelines. Each compound prepared in MHII medium was dispensed into a 96-well round-bottomed microtiter plate to give final assay concentrations from 64 µg/mL down to 0.25 µg/mL (two-fold dilution series in 10 wells, plus two control wells: medium control with no bacteria or compound, and growth control with bacteria added but no compound). Bacteria were prepared from fresh colonies grown on non-selective MHII agar, then suspended in saline to 0.5 McFarland (≅ 1.5 × […]
(§6) 10^8 CFU/mL) with turbidity assessed using a Sensititre Nephelometer (Trek Diagnostics Systems Ltd, UK). 50 µL of this bacterial suspension was transferred to 10 mL of MHII broth to give a final bacterial concentration ≅ 5 × 10^5 CFU/mL (acceptable range 3 – 7 × 10^5 CFU/mL). 50 µL of bacterial suspension was pipetted into each well (except the medium control well, where 50 µL MHII was pipetted). Final volume in each well was 100 µL. Plates were covered and incubated without shaking for 18-20 h at 35 °C ± 2 °C. MIC was read visually, as complete inhibition of growth by the unaided eye, using the medium-only wells as the control. Each compound was assayed at least in duplicate.
(§7) Additionally, the MIC for compound 2 against clinical carbapenem-resistant strains of A. baumannii […]
(§8) determined at the Public Health Agency of Sweden (according to EUCAST recommendations).
(§9) In vitro Cytotoxicity Determination. In vitro cytotoxicity was determined by a fluorometric microculture cytotoxicity assay,7 based on hydrolysis of fluorescein diacetate to fluorescein by cells with intact plasma membranes. In short, HepG2 cells (hepatocellular carcinoma cells, ATCC), in Eagle's Minimum Essential Medium (ATCC) supplemented with 10 % fetal bovine serum, penicillin/streptomycin (100 U/100 µg/mL) and 2 mM L-glutamine, were seeded in 384-well assay plates at a density of 1000 cells/well. The cells were incubated over night at 37°C and compounds in 10 mM DMSO were added, to obtain final concentrations 64 µM – 0.25 µM in two-fold dilutions.
(§10) After incubation for 72 h at 37°C, the cells were pelleted and washed. Fluorescein diacetate was […]

[2] = tested on: E. coli; conditions: Escherichia coli
Procedure: as §1, §2, §3, §4, §5, §6, §7, §8, §9, §10

[3] = tested on: K. pneumoniae; conditions: Klebsiella pneumoniae
Procedure: as §1, §2, §3, §4, §5, §6, §7, §8, §9, §10

[4] = tested on: P. aeruginosa; conditions: Pseudomonas aeruginosa
Procedure: as §1, §2, §3, §4, §5, §6, §7, §8, §9, §10

Compound `C/C=C1/NC(=O)[C@H](CCN)NC(=O)[C@H](CC(C)C)NC(=O)[C@H](CN)NC(=O)C[C@@H](CCCCCCC)OC(=O)[C@H](CC(=O)O)NC(=O)[C@H](C(C)(C)O)NC(=O)[C@@H](Cc2ccccc2)NC(=O)[C@H](CN)NC(=O)[C@H]([C@@H](C)O)NC1=O` [Compound 2, isopedopeptin B] ([Dap]L[Dab][X1]T[Dap][dF][Val(3-OH)]D; linker N-C via X2) has an MIC ([1]; ATCC19606, WT, read-out: MIC A. baumannii ATCC19606) of 8 µg/mL (≈ 7.16 µM), an MIC ([1]; Col (colistin-resistant), read-out: MIC A. baumannii EN0287) of 8 µg/mL (≈ 7.16 µM) and an MIC ([1]; MDR clinical, read-out: MIC A. baumannii BM4454) of 8 µg/mL (≈ 7.16 µM). For the same compound, the MIC ([1]; read-out: MIC A. baumannii BM4652, efflux-defective derivative of BM4454) was 8 µg/mL (≈ 7.16 µM), the MIC ([1]; read-out: MIC colistin-resistant strains of A. baumannii, strains not named) was ≥ 8 µg/mL and the MIC ([2]; ATCC25922, WT, read-out: MIC E. coli ATCC25922) was 8 µg/mL (≈ 7.16 µM). It also gave an MIC ([2]; ATCC25922, read-out: MIC E. coli CH3130, ΔtolC mutant isogenic to ATCC25922) of 8 µg/mL (≈ 7.16 µM), an MIC ([2]; ESC, CIP, GEN, SXT, read-out: MIC E. coli CH3491) of 8 µg/mL (≈ 7.16 µM) and an MIC ([2]; read-out: MIC E. coli D22, lpxC mutant, hypersensitive) of 4 µg/mL (≈ 3.58 µM). For the same compound, the MIC ([3]; ATCC13833, WT, read-out: MIC K. pneumoniae ATCC13833) was 4 µg/mL (≈ 3.58 µM), the MIC ([3]; Col, read-out: MIC K. pneumoniae CH9625) was 4 µg/mL (≈ 3.58 µM) and the MIC ([3]; Col, read-out: MIC K. pneumoniae CH9626) was 4 µg/mL (≈ 3.58 µM). The MIC ([3]; ESC, CARBA, CIP, GEN, AMK, SXT, TET, clinical multidrug-resistant, read-out: MIC K. pneumoniae CH3498) was 8 µg/mL (≈ 7.16 µM), the MIC ([3]; WT, read-out: MIC K. pneumoniae 1161486) was 8 µg/mL (≈ 7.16 µM) and the MIC ([3]; read-out: MIC K. pneumoniae 1161486a, ΔtolC mutant isogenic to 1161486) was 8 µg/mL (≈ 7.16 µM). For the same compound, the MIC ([3]; read-out: MIC colistin-resistant strains of K. pneumoniae, strains not named) was ≥ 4 µg/mL, the MIC ([4]; PAO1, read-out: MIC P. aeruginosa PAO750) was 32 µg/mL (≈ 28.6 µM) and the MIC ([4]; PAO1, WT, read-out: MIC P. aeruginosa PAO1) was 32 µg/mL (≈ 28.6 µM).

Source: PMC7684578, “Isopedopeptins A–H: Cationic Cyclic Lipodepsipeptides from Pedobacter cryoconitis UP508 Targeting WHO Top-Priority Carbapenem-Resistant Bacteria” (ACS Chemical Biology, 2020)
